Inconclusive results and toxic doses are left out. The calls were made as follows: active = survival T/C of 150% or more; inactive = T/C below 125% in these data.
Tested on: P388 leukemia ip, CD2F1 mice, survival T/C
Assay: NCI In Vivo Anticancer Drug Screen. Data for tumor model P388 Leukemia (intraperitoneal) in CD2F1 (CDF1) mice
Settings: endpoint: median survival time, higher = longer survival
Procedure, shortened: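 Mice carrying the transplanted tumor received test compound or vehicle. Survival was recorded in each group, and the value is the treated-group measurement divided by that of the vehicle-treated control group.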

[1] = dose: 50.0 mg/kg/injection, schedule: Q01DX009 (ip), vehicle: saline
[2] = dose: 100.0 mg/kg/injection, schedule: Q01DX009 (ip), vehicle: saline
[3] = dose: 25.0 mg/kg/injection, schedule: Q01DX005 (ip), vehicle: saline with Tween-80
[4] = dose: 50.0 mg/kg/injection, schedule: Q01DX005 (ip), vehicle: saline with Tween-80
[5] = dose: 100.0 mg/kg/injection, schedule: Q01DX005 (ip), vehicle: saline with Tween-80
[6] = dose: 200.0 mg/kg/injection, schedule: Q01DX005 (ip), vehicle: saline with Tween-80
[7] = dose: 12.5 mg/kg/injection, schedule: Q01DX005 (ip), vehicle: saline with Tween-80

Measured: T/C

Cc1cc(C)c(COCc2cc(C)c(C)cc2C)cc1C
inactive: dose: 25.0 mg/kg/injection, schedule: Q01DX009 (ip), vehicle: water 86 % of control | dose: 100.0 mg/kg/injection, schedule: Q01DX009 (ip), vehicle: water 90 % of control | dose: 200.0 mg/kg/injection, schedule: Q01DX009 (ip), vehicle: water 106 % of control | dose: 400.0 mg/kg/injection, schedule: Q01DX009 (ip), vehicle: water 104 % of control

O=C(O)CCc1cc(Br)no1
inactive: [1] 101 % of control | [2] 93 % of control | dose: 200.0 mg/kg/injection, schedule: Q01DX009 (ip), vehicle: saline 93 % of control

COC(=O)C(Nc1ccc(OC)cc1)c1ccccc1 (stereo not given)
inactive: dose: 60.0 mg/kg/injection, schedule: Q01DX005 (ip), vehicle: Klucel (hydroxypropylcellulose) (HPC) 108 % of control | dose: 120.0 mg/kg/injection, schedule: Q01DX005 (ip), vehicle: Klucel (hydroxypropylcellulose) (HPC) 104 % of control | dose: 240.0 mg/kg/injection, schedule: Q01DX005 (ip), vehicle: Klucel (hydroxypropylcellulose) (HPC) 110 % of control

CSC1SCC2C(=O)N(C)C(C(C)C)C(=O)OCC(NC(=O)c3cnc4ccccc4n3)C(=O)NC(C)C(=O)N(C)C1C(=O)N(C)C(C(C)C)C(=O)OCC(NC(=O)c1cnc3ccccc3n1)C(=O)NC(C)C(=O)N2C (stereo not given)
active: dose: 60.0 micrograms/kg/injection, schedule: Q01DX009 (ip), vehicle: saline with Tween-80 205 % of control
inactive: dose: 0.5 micrograms/kg/injection, schedule: Q01DX010 (ip), vehicle: saline 100 % of control | dose: 30.0 micrograms/kg/injection, schedule: Q01DX009 (oral), vehicle: saline with Tween-80 97 % of control | dose: 60.0 micrograms/kg/injection, schedule: Q01DX009 (oral), vehicle: saline with Tween-80 101 % of control | dose: 120.0 micrograms/kg/injection, schedule: Q01DX009 (oral), vehicle: saline with Tween-80 96 % of control | dose: 240.0 micrograms/kg/injection, schedule: Q01DX009 (ip), vehicle: saline with Tween-80 117 % of control | dose: 240.0 micrograms/kg/injection, schedule: Q01DX009 (oral), vehicle: saline with Tween-80 99 % of control | dose: 480.0 micrograms/kg/injection, schedule: Q01DX009 (oral), vehicle: saline with Tween-80 96 % of control

O=C(c1ccccc1)c1cccc(C(=O)c2ccccc2)c1
inactive: [3] 99 % of control | [4] 104 % of control | [5] 95 % of control | [6] 105 % of control

C#CC(=O)O
inactive: dose: 6.25 mg/kg/injection, schedule: Q01DX009 (ip), vehicle: saline with Tween-80 111 % of control | dose: 12.5 mg/kg/injection, schedule: Q01DX009 (ip), vehicle: saline with Tween-80 95 % of control | dose: 25.0 mg/kg/injection, schedule: Q01DX009 (ip), vehicle: saline with Tween-80 92 % of control

Cc1cc2c(C(C)C)c(O)c(O)c(C=NC3CCCCC3)c2c(O)c1-c1c(C)cc2c(C(C)C)c(O)c(O)c(C=NC3CCCCC3)c2c1O
inactive: [7] 103 % of control | [3] 92 % of control | [4] 88 % of control

COC(=O)C(NC(N)=O)OC (stereo not given)
inactive: dose: 25.0 mg/kg/injection, schedule: Q01DX009 (ip), vehicle: saline 105 % of control | [1] 100 % of control | [2] 103 % of control

CN1CCc2cc3c(cc2C(=O)Cc2ccc4c(c2C1)OCO4)OCO3
inactive: dose: 25.0 mg/kg/injection, schedule: Q04DX003 (ip), vehicle: saline with Tween-80 95 % of control | dose: 50.0 mg/kg/injection, schedule: Q04DX003 (ip), vehicle: saline with Tween-80 90 % of control | dose: 100.0 mg/kg/injection, schedule: Q04DX003 (ip), vehicle: saline with Tween-80 90 % of control

CCCCNC(=S)NC1C2CC3CC(C2)CC1C3 (stereo not given)
inactive: dose: 50.0 mg/kg/injection, schedule: Q01DX009 (ip), vehicle: Klucel (hydroxypropylcellulose) (HPC) 97 % of control | dose: 100.0 mg/kg/injection, schedule: Q01DX009 (ip), vehicle: Klucel (hydroxypropylcellulose) (HPC) 98 % of control | dose: 200.0 mg/kg/injection, schedule: Q01DX009 (ip), vehicle: Klucel (hydroxypropylcellulose) (HPC) 101 % of control

C/C(=N\N=C/N(C)S(C)(=O)=O)c1ccccc1
inactive: dose: 50.0 mg/kg/injection, schedule: Q01DX005 (ip), vehicle: Klucel (hydroxypropylcellulose) (HPC) 104 % of control | dose: 100.0 mg/kg/injection, schedule: Q01DX005 (ip), vehicle: Klucel (hydroxypropylcellulose) (HPC) 104 % of control | dose: 200.0 mg/kg/injection, schedule: Q01DX005 (ip), vehicle: Klucel (hydroxypropylcellulose) (HPC) 99 % of control

CCN(CC)C(=S)n1nc(C)c(N=Nc2cccc(Cl)c2Cl)c1C
inactive: dose: 6.25 mg/kg/injection, schedule: Q01DX005 (ip), vehicle: saline with Tween-80 103 % of control | [7] 97 % of control | [3] 93 % of control | [5] 91 % of control | [6] 94 % of control

From PubChem BioAssay AID330 (DTP/NCI, 2004)
